Calls of active or inactive are those of the source.
Legend:
Cytochrome P450 1A2 = target: T1, Cytochrome P450 1A2 (Homo sapiens, UniProt P05177);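 note: PubChem cytochrome P450 panel assay, CYP1A2 panel member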
T1 sequence (P05177 whole entry): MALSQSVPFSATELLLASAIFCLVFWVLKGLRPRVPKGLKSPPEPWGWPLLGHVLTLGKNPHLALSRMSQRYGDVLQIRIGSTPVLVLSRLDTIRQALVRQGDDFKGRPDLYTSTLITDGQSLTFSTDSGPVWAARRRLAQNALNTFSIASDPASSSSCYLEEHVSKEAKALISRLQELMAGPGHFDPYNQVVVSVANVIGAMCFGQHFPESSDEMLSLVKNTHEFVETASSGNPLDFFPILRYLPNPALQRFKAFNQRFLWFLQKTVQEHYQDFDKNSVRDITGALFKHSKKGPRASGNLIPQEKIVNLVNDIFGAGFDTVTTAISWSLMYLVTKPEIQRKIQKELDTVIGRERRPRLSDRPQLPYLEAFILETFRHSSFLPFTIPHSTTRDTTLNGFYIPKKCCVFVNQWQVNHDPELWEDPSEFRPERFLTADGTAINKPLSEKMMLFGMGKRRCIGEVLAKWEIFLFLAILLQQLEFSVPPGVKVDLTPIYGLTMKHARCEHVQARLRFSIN

[1] = target: T2, Tyrosine-protein phosphatase non-receptor type 7 (Homo sapiens, UniProt P35236); test: HePTP tyrosine phosphatase activity blockers – biochemical, absorbance, leukemia target, primary screen (AID 521); assay type: functional
T2 sequence (P35236 whole entry): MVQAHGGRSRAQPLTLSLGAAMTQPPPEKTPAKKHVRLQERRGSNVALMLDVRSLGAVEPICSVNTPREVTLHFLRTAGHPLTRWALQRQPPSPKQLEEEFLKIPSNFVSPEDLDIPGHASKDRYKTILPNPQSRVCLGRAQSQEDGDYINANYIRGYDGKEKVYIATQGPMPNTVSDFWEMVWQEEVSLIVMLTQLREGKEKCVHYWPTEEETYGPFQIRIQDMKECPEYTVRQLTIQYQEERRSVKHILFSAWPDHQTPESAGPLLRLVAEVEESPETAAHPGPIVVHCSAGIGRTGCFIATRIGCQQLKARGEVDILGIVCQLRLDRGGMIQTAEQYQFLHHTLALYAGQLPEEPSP

[2] = target: Diphosphomevalonate decarboxylase (Streptococcus pneumoniae serotype 2 (strain D39 / NCTC 7466), UniProt Q9FD53); test: diphosphomevalonate decarboxylase inhibitor confirmation – biochemical, cuvette format, coupled NADH fluorescence (AID 1028); assay type: functional
Sequence of Diphosphomevalonate decarboxylase (Q9FD53 whole entry): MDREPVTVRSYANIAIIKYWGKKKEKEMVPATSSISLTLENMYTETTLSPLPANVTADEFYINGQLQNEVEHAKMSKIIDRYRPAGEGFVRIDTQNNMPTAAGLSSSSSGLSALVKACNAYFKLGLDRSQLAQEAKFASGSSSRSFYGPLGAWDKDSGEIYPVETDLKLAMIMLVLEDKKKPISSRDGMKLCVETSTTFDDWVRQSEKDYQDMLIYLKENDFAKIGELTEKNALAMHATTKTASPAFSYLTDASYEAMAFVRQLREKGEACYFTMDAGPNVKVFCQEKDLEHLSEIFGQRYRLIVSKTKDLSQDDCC

Ephrin type-A receptor 4 = Ephrin type-A receptor 4 (Mus musculus, UniProt Q03137); test: EphA4 ligand-binding antagonists – biochemical, colorimetric, mouse EphA4, primary screen (AID 689); assay type: functional
Sequence of Ephrin type-A receptor 4 (Q03137 whole entry): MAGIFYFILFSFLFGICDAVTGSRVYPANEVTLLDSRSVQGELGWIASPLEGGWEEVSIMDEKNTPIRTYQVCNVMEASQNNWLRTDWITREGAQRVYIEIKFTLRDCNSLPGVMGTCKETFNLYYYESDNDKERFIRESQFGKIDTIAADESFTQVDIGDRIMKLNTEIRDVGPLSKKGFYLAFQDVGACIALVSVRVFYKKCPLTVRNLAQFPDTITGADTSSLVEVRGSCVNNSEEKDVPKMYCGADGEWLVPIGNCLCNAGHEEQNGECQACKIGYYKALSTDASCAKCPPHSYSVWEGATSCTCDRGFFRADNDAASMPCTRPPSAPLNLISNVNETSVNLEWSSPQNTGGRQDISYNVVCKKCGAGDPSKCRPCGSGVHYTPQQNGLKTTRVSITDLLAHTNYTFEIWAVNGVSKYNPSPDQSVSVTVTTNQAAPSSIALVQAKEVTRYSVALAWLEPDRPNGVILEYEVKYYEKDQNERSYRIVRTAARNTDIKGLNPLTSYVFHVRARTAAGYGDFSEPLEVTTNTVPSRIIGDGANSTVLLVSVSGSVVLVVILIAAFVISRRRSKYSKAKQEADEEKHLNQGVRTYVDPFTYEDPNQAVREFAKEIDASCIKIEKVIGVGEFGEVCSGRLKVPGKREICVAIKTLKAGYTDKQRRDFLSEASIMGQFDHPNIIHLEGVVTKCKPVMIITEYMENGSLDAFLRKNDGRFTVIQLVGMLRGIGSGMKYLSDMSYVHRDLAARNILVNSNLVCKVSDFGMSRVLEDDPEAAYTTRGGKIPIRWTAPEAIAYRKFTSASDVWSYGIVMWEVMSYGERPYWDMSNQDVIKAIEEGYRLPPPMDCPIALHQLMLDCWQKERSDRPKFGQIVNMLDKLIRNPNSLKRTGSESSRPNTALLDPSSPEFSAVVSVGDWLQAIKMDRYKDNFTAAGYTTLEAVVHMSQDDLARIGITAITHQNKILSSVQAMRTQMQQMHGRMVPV

[3] = target: T3, High affinity choline transporter 1 (Homo sapiens, UniProt Q9GZV3); test: human choline transporter blockers, potency – cell-based, 5-point CRC, membrane potential dye, dose response (AID 504840); assay type: functional
T3 sequence (Q9GZV3 whole entry): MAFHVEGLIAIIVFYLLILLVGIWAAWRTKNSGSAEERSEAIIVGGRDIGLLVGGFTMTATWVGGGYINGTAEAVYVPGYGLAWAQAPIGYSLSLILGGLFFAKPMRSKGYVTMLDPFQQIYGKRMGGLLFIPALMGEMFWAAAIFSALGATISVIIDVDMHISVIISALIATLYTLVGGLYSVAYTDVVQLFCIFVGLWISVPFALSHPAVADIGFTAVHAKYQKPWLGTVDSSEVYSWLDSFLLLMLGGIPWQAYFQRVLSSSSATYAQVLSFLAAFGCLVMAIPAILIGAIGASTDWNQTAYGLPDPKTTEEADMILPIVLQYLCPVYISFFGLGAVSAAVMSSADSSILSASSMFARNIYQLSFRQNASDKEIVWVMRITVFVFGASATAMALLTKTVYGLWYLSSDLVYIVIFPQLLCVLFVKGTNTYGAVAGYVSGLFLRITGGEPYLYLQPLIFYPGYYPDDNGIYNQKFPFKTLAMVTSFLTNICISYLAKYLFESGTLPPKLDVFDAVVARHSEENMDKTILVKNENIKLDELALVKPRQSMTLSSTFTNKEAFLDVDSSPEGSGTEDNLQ

[4] = target: G-protein coupled receptor 55 (Homo sapiens, UniProt Q9Y2T6); test: blockers of GPR55 signalling, imaged – imaging, image-based, counter-screen for GPR35 antagonist project, SAR follow-up (AID 2397); assay type: functional
Sequence of G-protein coupled receptor 55 (Q9Y2T6 whole entry): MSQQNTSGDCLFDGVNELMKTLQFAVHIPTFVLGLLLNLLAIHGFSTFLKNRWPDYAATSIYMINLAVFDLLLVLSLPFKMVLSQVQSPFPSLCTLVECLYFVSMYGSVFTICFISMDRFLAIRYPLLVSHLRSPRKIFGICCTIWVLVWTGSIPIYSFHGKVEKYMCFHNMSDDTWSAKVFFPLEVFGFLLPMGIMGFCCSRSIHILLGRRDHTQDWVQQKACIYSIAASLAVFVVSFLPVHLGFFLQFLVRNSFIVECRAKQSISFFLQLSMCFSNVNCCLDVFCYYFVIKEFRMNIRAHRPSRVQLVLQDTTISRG

Protein RecA = target: T4, Protein RecA (Mycobacterium tuberculosis, UniProt P9WHJ3); test: Fluorescence Cell-Free Homogeneous Dose Retest to Identify Inhibitors of RecA-Intein Splicing Activity. [Related pubchem assays (depositor defined):AID2097, AID2223, AID489010, AID492950]; assay type: functional
T4 sequence (P9WHJ3 whole entry): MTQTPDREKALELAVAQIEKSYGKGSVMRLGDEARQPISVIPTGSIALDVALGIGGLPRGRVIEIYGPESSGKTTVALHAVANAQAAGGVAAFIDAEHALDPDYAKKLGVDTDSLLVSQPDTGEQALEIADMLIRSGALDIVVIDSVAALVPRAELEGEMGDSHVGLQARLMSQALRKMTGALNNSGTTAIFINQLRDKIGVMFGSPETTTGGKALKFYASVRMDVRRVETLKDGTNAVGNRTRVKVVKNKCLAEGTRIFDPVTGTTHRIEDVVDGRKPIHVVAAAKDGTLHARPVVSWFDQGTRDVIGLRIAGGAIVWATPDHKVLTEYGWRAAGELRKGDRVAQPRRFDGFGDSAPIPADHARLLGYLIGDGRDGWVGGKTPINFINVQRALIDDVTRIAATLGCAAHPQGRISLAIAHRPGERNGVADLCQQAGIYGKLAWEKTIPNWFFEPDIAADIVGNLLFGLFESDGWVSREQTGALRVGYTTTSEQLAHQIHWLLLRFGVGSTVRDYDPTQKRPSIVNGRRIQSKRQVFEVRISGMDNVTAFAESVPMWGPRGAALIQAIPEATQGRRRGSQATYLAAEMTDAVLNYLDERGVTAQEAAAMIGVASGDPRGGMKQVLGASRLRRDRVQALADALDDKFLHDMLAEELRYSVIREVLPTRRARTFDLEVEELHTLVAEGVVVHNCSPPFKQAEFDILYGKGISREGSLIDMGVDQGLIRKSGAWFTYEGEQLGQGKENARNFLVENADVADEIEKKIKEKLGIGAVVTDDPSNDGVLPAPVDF

[5] = HEK-293T cell viability reduction – luminescence, B-cell screen hits, cytotoxicity control for BCR NF-kB inhibitor project, dose response (AID 489021); assay type: functional, cell-based;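 note: HEK-293T cells carrying an NF-kB luciferase reporter; cells exposed to compound for about 14 hours before viability readout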
[6] = target: G-protein coupled receptor 35 (Homo sapiens, UniProt Q9HC97); test: SAR Analysis for the identification of Selective Antagonists of ERK1/2 Activity in GPR35-Overexpressing U2OS Cells. [Related pubchem assays: 2079, 2058 ]; assay type: functional, cell-based
Sequence of G-protein coupled receptor 35 (Q9HC97 whole entry): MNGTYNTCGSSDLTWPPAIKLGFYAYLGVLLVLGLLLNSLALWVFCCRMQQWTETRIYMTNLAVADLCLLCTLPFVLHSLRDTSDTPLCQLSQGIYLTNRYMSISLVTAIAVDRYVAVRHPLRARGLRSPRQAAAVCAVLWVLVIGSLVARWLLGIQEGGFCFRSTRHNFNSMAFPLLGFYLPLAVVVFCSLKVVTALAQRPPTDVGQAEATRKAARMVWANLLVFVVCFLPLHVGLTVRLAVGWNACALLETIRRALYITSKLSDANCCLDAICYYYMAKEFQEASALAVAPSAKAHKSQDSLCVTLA

[7] = target: T5, Replicative DNA helicase DnaB (Mycobacterium tuberculosis, UniProt P9WMR3); test: DnaB intein splicing inhibitors, dose response, biochemical, cell-free fluorescence (AID 449749); assay type: functional
T5 sequence (P9WMR3 whole entry): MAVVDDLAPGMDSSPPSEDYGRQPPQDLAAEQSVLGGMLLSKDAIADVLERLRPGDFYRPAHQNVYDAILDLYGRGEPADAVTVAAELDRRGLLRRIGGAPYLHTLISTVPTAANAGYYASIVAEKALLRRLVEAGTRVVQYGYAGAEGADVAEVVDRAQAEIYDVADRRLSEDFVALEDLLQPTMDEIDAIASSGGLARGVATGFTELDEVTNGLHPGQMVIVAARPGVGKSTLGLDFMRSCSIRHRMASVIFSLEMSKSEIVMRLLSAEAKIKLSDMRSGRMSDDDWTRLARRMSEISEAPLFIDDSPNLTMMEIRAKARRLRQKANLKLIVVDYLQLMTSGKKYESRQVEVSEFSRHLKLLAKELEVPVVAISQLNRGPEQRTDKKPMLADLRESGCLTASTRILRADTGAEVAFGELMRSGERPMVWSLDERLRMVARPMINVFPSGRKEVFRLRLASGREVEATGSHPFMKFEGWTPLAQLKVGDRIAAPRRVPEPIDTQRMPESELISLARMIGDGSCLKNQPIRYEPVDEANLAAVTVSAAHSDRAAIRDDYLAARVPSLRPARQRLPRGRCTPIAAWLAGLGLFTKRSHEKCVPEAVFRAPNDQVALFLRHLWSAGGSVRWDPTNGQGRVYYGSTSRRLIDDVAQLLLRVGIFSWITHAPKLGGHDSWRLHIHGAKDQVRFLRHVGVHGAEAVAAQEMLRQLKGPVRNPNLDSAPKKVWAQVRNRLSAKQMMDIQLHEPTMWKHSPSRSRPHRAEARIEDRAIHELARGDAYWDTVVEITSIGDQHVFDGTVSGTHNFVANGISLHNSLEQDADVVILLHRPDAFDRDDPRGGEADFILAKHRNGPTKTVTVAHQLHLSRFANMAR

[8] = NIH3T3 cell viability loss – ATP luminescence, mouse fibroblasts, counter-screen, dose response (AID 2010); assay type: functional, cell-based;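 note: cells exposed to compound for about 90 hours before reading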
[9] = M. tuberculosis growth inhibition, HTS (AID 449762); assay type: functional
[10] = Trypanosoma cruzi growth suppression in host cells – NIH3T3 host cells, beta-gal luminescence, confirmation (AID 2044); assay type: functional, cell-based;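 note: intracellular parasites grown in NIH/3T3 mouse fibroblasts as host cells; luminescent beta-galactosidase reporter signal from transgenic T. cruzi replicating inside host cells; inhibitors lower the luminescence signal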
[11] = target: T6, Mannose-6-phosphate isomerase (Homo sapiens, UniProt P34949); test: MPI inhibition at elevated mannose 6-phosphate – biochemical, fluorescence intensity, high mannose 6-phosphate, primary screen (AID 1220)
T6 sequence (P34949 whole entry): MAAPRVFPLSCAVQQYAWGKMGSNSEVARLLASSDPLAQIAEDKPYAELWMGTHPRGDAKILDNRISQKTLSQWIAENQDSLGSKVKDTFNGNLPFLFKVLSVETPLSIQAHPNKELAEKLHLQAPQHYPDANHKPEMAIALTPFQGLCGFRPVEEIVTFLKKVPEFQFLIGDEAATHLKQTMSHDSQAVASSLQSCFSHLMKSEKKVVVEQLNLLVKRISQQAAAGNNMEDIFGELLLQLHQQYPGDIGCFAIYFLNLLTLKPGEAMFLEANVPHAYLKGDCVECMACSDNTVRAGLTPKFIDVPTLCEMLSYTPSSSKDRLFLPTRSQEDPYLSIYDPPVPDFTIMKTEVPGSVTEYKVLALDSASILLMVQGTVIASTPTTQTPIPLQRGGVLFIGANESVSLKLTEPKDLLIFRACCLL

Vero [12] = test: mammalian cell viability reduction – secondary assay, cytotoxicity control for West Nile virus antiviral project, dose response (AID 1650); assay type: functional; conditions: Chlorocebus sabaeus
Vero [13] = test: inhibition of WNV-induced cytopathic effect – cell-based, CPE readout (AID 1621); assay type: functional; conditions: Chlorocebus sabaeus
Vero [14] = test: cells; assay type: functional, cell-based; conditions: Chlorocebus sabaeus
[15] = viability of uninfected HEp-2 cells – cell-based, HTS, cytotoxicity control for RSV inhibitor project, dose response (AID 2410); assay type: functional; conditions: human respiratory syncytial virus
[16] = Luminescence Cell-Based Dose Confirmation HTS to Identify Inhibitors of Platelet Dense Granule Release. [Related pubchem assays: 1663 (Primary HTS), 1678 (Summary of Project)]; assay type: functional
[17] = Fluorescence Cell-Based Dose Response to Identify Inhibitors of Thrombin Receptor-Activating Peptide SFLLRN-Mediated P-Selectin Induction on Platelets. [Related pubchem assays: 1663 (Primary HTS), 1889 (retest at dose ), 1891 (counterscreen), 1678 (Project Summary)]; assay type: functional
[18] = target: Luciferin 4-monooxygenase (Photinus pyralis, UniProt P08659); test: inhibition of purified Photinus pyralis luciferase – biochemical, luminescence, dose response (AID 1891)
Sequence of Luciferin 4-monooxygenase (P08659 whole entry): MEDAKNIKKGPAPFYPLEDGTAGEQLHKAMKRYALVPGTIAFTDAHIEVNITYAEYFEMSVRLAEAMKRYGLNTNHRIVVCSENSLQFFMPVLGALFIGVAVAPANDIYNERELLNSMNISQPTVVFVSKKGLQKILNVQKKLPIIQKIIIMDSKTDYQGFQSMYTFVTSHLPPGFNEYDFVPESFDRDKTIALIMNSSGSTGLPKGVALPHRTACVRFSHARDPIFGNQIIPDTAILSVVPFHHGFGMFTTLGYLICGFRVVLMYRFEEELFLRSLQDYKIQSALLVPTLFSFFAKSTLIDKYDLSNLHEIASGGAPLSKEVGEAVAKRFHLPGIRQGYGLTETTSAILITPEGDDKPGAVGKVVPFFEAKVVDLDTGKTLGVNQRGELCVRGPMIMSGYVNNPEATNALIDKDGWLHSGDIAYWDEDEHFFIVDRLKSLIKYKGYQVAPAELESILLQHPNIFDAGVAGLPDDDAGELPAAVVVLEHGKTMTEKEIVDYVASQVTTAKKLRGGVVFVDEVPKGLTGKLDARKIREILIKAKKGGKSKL

[19] = Luminescent dose response cell-based high throughput screening assay for inhibitors of the Janus kinase 2 mutant JAK2V617F. [Related pubchem assays: 1446 (Primary screen.), 1521 (Confirmation assay.), 1486 (Counter screen.)]; assay type: functional
[20] = target: DNA repair and recombination protein RAD54-like (Homo sapiens, UniProt Q92698); test: RAD54 Holliday junction migration blockers – biochemical, fluorescence, cherry-picked samples, dose series, confirmation (AID 651657); assay type: functional
Sequence of DNA repair and recombination protein RAD54-like (Q92698 whole entry): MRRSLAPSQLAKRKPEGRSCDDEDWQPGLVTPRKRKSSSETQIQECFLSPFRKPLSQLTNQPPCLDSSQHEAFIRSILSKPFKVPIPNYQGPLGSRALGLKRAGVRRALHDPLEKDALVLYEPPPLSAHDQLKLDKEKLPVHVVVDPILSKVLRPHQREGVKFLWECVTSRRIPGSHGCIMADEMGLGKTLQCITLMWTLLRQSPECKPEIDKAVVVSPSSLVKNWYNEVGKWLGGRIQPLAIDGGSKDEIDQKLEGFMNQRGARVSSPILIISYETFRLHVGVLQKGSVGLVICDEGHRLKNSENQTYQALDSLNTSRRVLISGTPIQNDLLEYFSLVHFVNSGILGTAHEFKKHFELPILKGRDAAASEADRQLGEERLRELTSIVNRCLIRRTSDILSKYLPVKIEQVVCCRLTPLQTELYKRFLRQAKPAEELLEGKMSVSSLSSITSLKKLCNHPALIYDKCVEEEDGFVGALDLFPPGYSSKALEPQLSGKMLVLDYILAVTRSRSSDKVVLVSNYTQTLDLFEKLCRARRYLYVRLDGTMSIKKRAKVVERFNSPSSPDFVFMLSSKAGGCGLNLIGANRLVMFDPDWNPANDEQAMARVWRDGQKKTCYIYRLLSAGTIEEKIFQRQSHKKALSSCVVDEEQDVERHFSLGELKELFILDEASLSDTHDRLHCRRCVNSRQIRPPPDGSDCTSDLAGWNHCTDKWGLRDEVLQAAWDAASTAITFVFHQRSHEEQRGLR

[21] = Luminescence Cell-Based Dose Retest to Confirm Inhibitors of Cancer Stem Cells. [Related pubchem assays (depositor defined):AID2717, AID2721]; assay type: functional; conditions: Homo sapiens

## Cc1c(NC(=O)CN2C(=O)C3C4C=CC(C4)C3C2=O)c(=O)n(-c2ccccc2)n1C (stereo not given)
Cytochrome P450 1A2
  AC50: 39.8 µM (inconclusive)
[1]
  IC50: > 100 µM (not active)

## O=C(NCc1ccco1)c1ccc(-n2sc3ccccc3c2=O)cc1
[2]
  IC50: 4.68 µM (active)

## CCn1c(SCc2nc(-c3ccccc3)no2)nnc1-c1cccs1
Ephrin type-A receptor 4
  IC50: > 100 µM (not active)
[3]
  IC50: 15.1 µM (active)

## COc1ccc(/C=C2\SC(=S)N(CCCC(=O)Nc3ccc(O)cc3)C2=O)cc1
[4]
  IC50: > 32 µM (inactive)
Protein RecA
  EC50: 78.1 µM (active)
[5]
  IC50: > 80 µM (inactive)
[6]
  IC50: > 32 µM (not active)
[7]
  AC50: > 380 µM (inactive)

## Cc1cccc(CSc2nc3c(c(-c4cccs4)c2C#N)CN(C)CC3)c1
Protein RecA
  EC50: 0.503 µM (active)
[8]
  EC50: > 60 µM (not active)
[9]
  IC50: > 100 µM (active)
[10]
  EC50: 101 nM (active)
[7]
  AC50: 16.5 µM (active)
[11]
  IC50: > 50 µM (not active)

## COC(=O)c1c(-c2ccccc2)csc1NC(=O)c1c(-c2ccccc2)noc1C
Vero [12]
  CC50: 10.1 µM (active)
Vero [13]
  IC50: 41.3 µM (active)
cells
  IC50: 3.07 µM (active)
Vero [14]
  IC50: 800 nM (active)
[15]
  CC50: 6.35 µM (active)

## COC(=O)C(C)Sc1nc2c(c(=O)[nH]c(=O)n2C)n1CCCc1ccccc1 (stereo not given)
[16]
  EC50: 6.52 µM (active)
[17]
  EC50: < 30 µM (active)
[3]
  IC50: 12.6 µM (active)
[18]
  EC50: > 112 µM (not active)

## CC1CCCN(CCCNC(=O)c2cc3c(Cl)nc4ccccc4c3s2)C1 (stereo not given)
[8]
  EC50: 6.28 µM (active)
[19]
  IC50: 934 nM (active)
[20]
  AC50: 9.98 µM (active)
[10]
  EC50: 1400 nM (active)
[21]
  AC50: 8.01 µM (active)
